Results on 3 compounds are retold here after US5919464A, “Treatment of aberrant cellular states with biomodulators” (University of New Mexico, priority 1993, dated 1999).

Assay [1] has as its system human peripheral blood leukocytes (HPBLs). The assay is described as follows: HPBL plaque forming cell (PFC) assay / IgG production in vitro (differentiation). The class given is cell-based. An excerpt: (§1) C. […] This model is used to correlate the effects of biomodulators on the expression of immune response in vitro. The plaque assay disclosed in this reference is used for the determination of the effect of biomodulators on the specificity, class and subclass of individual clones.
(§2) A. Purification of PWM and separation of the differentiative and proliferative functions Pokeweed Mitogen (PWM) and three of its isomitogens, Pa-1 and Pa-5, which are primarily differentiative in nature, and Pa-2 which is primarily proliferative, were prepared according to the method of Waxdal, supra, except that the iso-mitogens were finally purified by isoelectric focusing.
Human peripheral blood leukocytes were cultured in a standard tissue culture medium. Aliquots of these cultured cells (1,000,000 cells/ml medium) were cultured for 6 hours, and the specified amount of Formula II compound was added; the cells were then cultured for an additional 90 hours. Sheep red blood cells (SRBC) conditioned with class-specific (IpG) goat anti-human antiserum (1:400) for 2 hours; then guinea pig complement (2%) for 2 hours were conjugated to Protein A as described in detail in Radioimmunoimaging and Radioimmunotherapy, Eds.

Assay [2] shares this test system. The assay is described as follows: HPBL 3H-thymidine incorporation (proliferation). The class given is cell-based. Also on record: reference not given here.
From the text: as §1, §2

The subject of assay [3] is canine glioma (CG) specific IgG antibody. In words: CG-specific antibody (IgG) titer in a dog. The class given is in vivo.
For the next assay, the system named is CG tumor. The assay is described as follows: chromium-release cell-mediated lympholysis vs. CG tumor in a dog. The class given is in vivo. An excerpt:
Cellular immune response reflected the results reported in III, 1 above. […] This also is in the absence of CG antigen exposure. […] Thus, both cellular and humoral immunity appear to be modulatable in the absence of antigen by the compounds of the instant invention.

In a further assay the test system is canine glioma cells. The assay is described as follows: in vivo inhibition of canine glioma in nude rats, compound IIc'. On the procedure:
Fifty four nude rats (Harlan) were injected in the right flank with 5×10^6 canine glioma cells. Animals at the time of injection were between 52 and 63 days old and weighed approximately 200 g. The rats were divided into 7 groups, each group having a total number of 7 rats except for the control group, which totalled 12 animals. Compound IIc' was administered to the experimental animals at one of the following doses for each experimental group: 100 μg/kg, 10 μg/kg, 1 μg/kg, 0.1 μg/kg, 0.01 μg/kg and 0.001 μg/kg (phosphate buffer saline, M, W, F, I.P.). The control animals were injected with PBS (phosphate buffered saline) only. The volume of each injection was 100 μl. The injections of drug were simultaneously begun with injection of tumor cells. The animals were injected with the appropriate dosage of drug ([…]) by I.P. injection and tumor length, width and depth were measured using caliphers each Monday, Wednesday and Friday (M, W, F) morning for approximately 9 weeks. Each point on the graphs represents the total of all rats for each group. […] The data were normalized for the greater number of control animals by multiplying the total tumor volume for the control animals by 7/12.

Assay [4] can be described thus: biomodulator assay (general). Particulars: in words. An excerpt: All biomodulators will have at least the following effects, which can be measured as indicated above:
a. Biomodulators cause, at a concentration in the general range of 100 pM-1 μm, the differentiation of lymphocytes. This differentiation can be detected by, for example, the increased production of specific and non-specific antibodies in response to the presence of biomodulator in the culture medium, e.g., according to the HPBL method discussed above in C, or the alteration in the class of antibodies being produced by a cell line, e.g., from IgM to IgG, e.g., according to the method disclosed in the same reference.
b. Biomodulators cause, at a concentration in the general range of 100 pM-1 μm, the alteration of the cell surface oligosaccharide display of IMR-90 cells in culture as discussed in A. above.
Activity in both of these assays is a necessary and sufficient measure of whether or not a given substance is a biomodulator, as defined herein.

The next assay deals with TNP-Ficoll. In words: in vivo antibody (PFC) response to T-independent antigen TNP-Ficoll. Also on record: species or system mouse. To be noted: in words. The protocol:
In this case both IgM and IgG hapten specific responses were recorded as well as non-antigen specific plaque responses (Ig-PFC) using a Protein A coated red blood cell target.
The TNP-Ficoll antigen is administered as the SRBC antigen was above, by i.p. injection and the response assessed by conjugating the TNP hapten directly to the SRBC target, thus obviating any potential "carrier" effect. […] In this case, a third experimental parameter has been added to the study, the production of non-specific immunoglobulin (Ig-PFC). This parameter provides information on the general status of the humoral response regardless of antigen specificity. The TNP-Ficoll antigen does elicit a modest Ig-PFC response but little if any IgG specific response. […] In this case there is a very large specific and non-specific augmentation.

“Also recorded” adds a separate entry of the source.

As to `CC(C)OC(=O)C[C@H](O)C[C@@H](O)/C=C/c1c(C(C)C)nc(-c2ccccc2)n1-c1ccc(F)cc1` [Compound IIc'], in assay [1] (HPBL), the “Inhibitory Concentration (inhibiting nonspecific IgG production below normal production)” value is recorded as “none found”. Moreover, the “Stimulation of IgG Production, Concentration” value in assay [1] (HPBL) is reported as 100 pM. Further, the “optimal dose in vitro, immune stimulation” value in assay [1] (HPBL assay) is listed as 100 pM. In assay [1] (HPBL, at the stimulating concentration), the “Stimulation of IgG Production, Percent” value was 6200%. Further, the “Proliferation ((3H) thymidine incorporation into DNA)” value in assay [2] was found to be 1.2. Further, in assay [3] (in words), the “antibody titer versus control without antigen” value is recorded as “titers of antibody increased over the control antibody titer significantly”. Further, the “IC-50% Titer (Anti-CG)” value in assay [3] (treated 2+ months, tumor regressed) is recorded as “Baseline Values”. Also, the “slope M of Y = MX + B (linear regression of toxicity)” value with CG tumor (December 14, 1987) amounted to 0.05; in the assay with CG tumor (February 9, 1988), 0.35; in the assay with CG tumor (February 17, 1988), 0.75; in the assay with CG tumor (March 31, 1988) it was 0.05. The CML result with CG tumor (additional 2 months of administration, no CG antigen, in words) is “significant increase in CML”. The “CG-specific CML” value in the assay on CG tumor (after 14 days, I.P., M, W, F, in words) is reported as “only baseline levels of CG-specific CML were present”. The “optimal dose in vivo, equivalent concentration with uniform distribution” value in the assay with canine glioma cells (100 ng/kg) is listed as 250 pM. Further, the “cytostatic activity at other doses” value in the assay with canine glioma cells (10 and 100 μg/kg, 1 ng/kg, in words) is given as “Little or no cytostatic activity”. Moreover, the “most effective dosage for inhibition of canine glioma” value in the assay on canine glioma cells (I.P., M, W, F) is 100 ng/kg.

With `Cc1c(/C=C/C(O)CC(O)CC(=O)O)ccc2c1C(O)CC(C)C2` (stereo not drawn) [colletruncoic acid], the biomodulator activity entry in assay [4] is recorded as “has been shown to have biomodulator activity”.

As to Dextran, the “PFC response to TNP-Ficoll” value in the assay on TNP-Ficoll is recorded as “some stimulatory effect; also recorded: marked cellular proliferation but little differentiative response”.
